The test concerns E. coli WT-GFP vs G2058-humanized RFP, fluorescence, 24 h. The experiment in a line: growth inhibition of wild-type GFP E. coli versus G2058-humanized strain, dose response, G2058 mutant RFP vs wild-type GFP, cherry-pick, two tests (AID 1035470).
The mark [1] stands for this setting: E. coli WT-GFP vs G2058-humanized RFP mixed culture, total growth OD600, 24 h.
Where [2] appears, read: measured here: G2058 humanized mutant RFP growth.

Molecules are shown by their SMILES. Records with an inconclusive call do not appear. Calls of active or inactive are those of the source.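 Rule for the calls: active = compound lowering the normal-ribosome reporter at least twice as much as the humanized-ribosome reporter, growth loss under a set limit; inconclusive = no clear call, values can overlap the other calls; inactive = the rest.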

For orientation: AC50 means the midpoint of the concentration-response curve, whichever way the signal moves. For `CC1Cc2cc(S(=O)(=O)N3CCN(c4cccc(Cl)c4)CC3)ccc2N1C(=O)C1CC1` (stereo not drawn), the AC50 under setting [1] is > 100 µM.

Regarding `O=C(O)c1ccc(Oc2ccc([N+](=O)[O-])cc2)c([N+](=O)[O-])c1`, the AC50 is > 100 µM (inactive).

For `COc1ccc(CNc2cc([N+](=O)[O-])ccc2OC)cc1`, the AC50 is > 100 µM (inactive). Moreover, the AC50 under setting [1] is > 100 µM. Under setting [2], the AC50 was > 100 µM.

Regarding `CCOc1ccc(C(C)=O)cc1CN1C(=O)NC2(CCCCCCC2)C1=O`, the AC50 was > 100 µM (inactive). In addition, the AC50 under setting [1] is > 100 µM.

On to `Cc1ccccc1S(=O)(=O)c1cc2ccccc2nc1N`, for which, under setting [1], the AC50 is > 100 µM.

Turning to `COc1cccc(OC)c1CNC(=O)CCSCc1ccccc1F`, the AC50 is > 100 µM (inactive). In addition, under setting [1], the AC50 is > 100 µM.

In the case of `O=C(C1Cc2ccccc2CN1C(=O)c1ccccc1)N1CCN(c2ccccc2)CC1` (stereo not drawn), the AC50 was > 100 µM (inactive). In addition, the AC50 under setting [1] was > 100 µM. For the same molecule, the AC50 under setting [2] is > 100 µM.

On to `CCOC(=O)c1ccc(CC(=O)c2oc3cc(O)ccc3c2C)o1`, for which the AC50 is > 100 µM (inactive).

On to `COc1ccc(CC(=O)NCc2csc(-c3cccs3)n2)cc1OC`, for which the AC50 is > 100 µM (inactive).

For `Cc1cccc(-c2ccc([C@H]3[C@@H](CO)N4CCCCN(S(=O)(=O)c5ccccc5C)C[C@H]34)cc2)c1`, the AC50 under setting [1] is > 100 µM.

On to `CC(C)(C)CC(=O)Nc1ccccc1N1CCN(c2ccccc2)CC1`, for which the AC50 was > 100 µM (inactive).

As to `CC(=O)OC(COc1cccc(C)c1)Cn1cnc2ccccc21` (stereo not drawn), the AC50 was > 100 µM (inactive). The AC50 under setting [1] is > 100 µM.

`CC1Cc2ccccc2N1C(=O)CN1C(=O)NC(C)(CCc2ccccc2)C1=O` (stereo not drawn): under setting [1], the AC50 is > 100 µM.

Take `CNC(=O)c1cc(C(=O)c2ccc(C(F)(F)F)cc2F)c[nH]1`: the AC50 was > 100 µM (inactive). The AC50 under setting [1] was > 100 µM.

On to `O=C1c2cccc(OCC(=O)N3CCCc4ccccc43)c2CCN1Cc1cccnc1`, for which the AC50 was > 100 µM (inactive). In addition, the AC50 under setting [1] is > 100 µM.

For `CSCCC1NC(=O)N(C(C)C(=O)Nc2cc(Cl)cc(Cl)c2)C1=O` (stereo not drawn), the AC50 is > 100 µM (inactive). The AC50 under setting [1] is > 100 µM. Besides, the AC50 under setting [2] was 7.38 µM.

Consider `CCN(CC)CCN(C(=O)c1ccc2c(c1)OCCO2)c1nc2c(Cl)cccc2s1`, for which the AC50 is > 100 µM (inactive).

Turning to `COc1ccc(CC(=O)NC(C)c2ccc3ccccc3c2)cc1` (stereo not drawn), the AC50 under setting [2] was 5.4 µM.

In the case of `CC(=O)CSc1ccc(-c2nc3ccccc3[nH]2)cn1`, the AC50 is > 100 µM (inactive). In addition, the AC50 under setting [1] is > 100 µM.

Regarding `O=C(Nc1ccc2c(c1)OCO2)c1ccc([N+](=O)[O-])cc1[N+](=O)[O-]`, the AC50 is > 100 µM (inactive).

For the molecule `CC1(c2ccc3ccccc3c2)NC(=O)N(CC(=O)N2CCN(c3ccccc3O)CC2)C1=O` (stereo not drawn), the AC50 is > 100 µM (inactive). The AC50 under setting [1] is > 100 µM.

Take `CN(C)C(CNS(=O)(=O)c1cc([N+](=O)[O-])ccc1Cl)c1ccco1` (stereo not drawn): the AC50 is > 100 µM (inactive).

`CSc1ccccc1OCc1cc(C(=O)N[C@H]2CCCCNC2=O)no1`: the AC50 was > 100 µM (inactive). Also, the AC50 under setting [1] was > 100 µM.

For `O=C(C[n+]1cc(-c2ccc(Cl)c(Cl)c2)n2c1CCC2)OCc1ccccc1`, the AC50 was > 100 µM (inactive). Besides, under setting [1], the AC50 was > 100 µM.

As to `COc1ccccc1NC(=O)COC(=O)Cc1c[nH]c2ccccc12`, the AC50 under setting [2] is > 100 µM.

Consider `COC(=O)c1ccc(OCC(=O)c2ccccc2OC)cc1`, for which the AC50 is > 100 µM (inactive). Also, the AC50 under setting [1] was > 100 µM.

`CC(=O)Oc1ccc(N(c2ccccc2)S(=O)(=O)c2ccc(C)cc2)cc1`: the AC50 under setting [1] is > 100 µM.

Regarding `Cc1ccccc1OCc1nc2ccccc2n1C`, the AC50 was > 100 µM (inactive).

`CC(C)(C)S(=O)(=O)Cc1nc(-c2ccc(Cl)c(Cl)c2)cs1` showed an AC50 under setting [2] of 38.5 µM.

As for `O=S1(=O)c2ccc(Br)cc2OCCC2CCCCN21` (stereo not drawn), the AC50 is > 100 µM (inactive). In addition, the AC50 under setting [1] was > 100 µM.

In the case of `COc1cccc(S(=O)(=O)N2CCCCN3[C@H](C2)[C@H](c2ccc(C#CC(C)C)cc2)[C@@H]3CO)c1`, the AC50 was > 100 µM (inactive).

For `CCOC(=O)c1sc(NC(=O)CN2CCN(c3ccccc3)CC2)nc1C`, the AC50 is > 100 µM (inactive). Moreover, the AC50 under setting [1] was > 100 µM.

Turning to `Cc1noc(C)c1COc1cccc(C(=O)N2CCc3ccccc32)c1`, the AC50 is > 100 µM (inactive).

For the molecule `O=c1c2ccccc2nc(SCc2ccccc2)n1CC1CCCO1` (stereo not drawn), the AC50 under setting [1] is > 100 µM.

As for `COC(=O)c1ccc2nc(-c3cccc(Br)c3)c(Cc3ccsc3)n2c1`, the AC50 is > 100 µM (inactive). Besides, the AC50 under setting [2] was > 100 µM.

As to `O=C(Nc1cccc(Cl)c1)N1C[C@@H]2[C@H](c3ccccc31)[C@H](CO)N2Cc1ccncc1`, the AC50 is > 100 µM (inactive). The AC50 under setting [1] was > 100 µM.

Consider `CC1Cc2cc(-c3csc(NC(=O)Cc4ccccc4)n3)ccc2N1S(C)(=O)=O` (stereo not drawn), for which the AC50 was > 100 µM (inactive). Under setting [1], the AC50 is > 100 µM.

In the case of `CCCC#C/C(CCC)=C1\c2ccccc2C(=O)N1c1ccccc1`, the AC50 is > 100 µM (inactive). Besides, the AC50 under setting [1] was > 100 µM.

Turning to `Cc1cc(C)c(OCCN(C)Cc2ccccc2)c(Br)c1`, the AC50 under setting [1] is > 100 µM.

Turning to `Cc1cc(C(=O)OCC(=O)Nc2cccc(S(N)(=O)=O)c2)c2ccccc2n1`, the AC50 was > 100 µM (inactive).

As for `O=C1OCCC1Sc1nc2ccccc2c(=O)n1Cc1ccccc1` (stereo not drawn), the AC50 is > 100 µM (inactive).

Take `CC(=O)Nc1nc(C)c(-c2csc(Nc3ccccn3)n2)s1`: the AC50 was > 100 µM (inactive).

Turning to `N#Cc1c(N)nc(SCc2ccccc2)c(C#N)c1-c1ccco1`, the AC50 is > 100 µM (inactive).

For `O=C(O)c1cc(-c2ccc(Cl)s2)nc2ccccc12`, the AC50 was > 100 µM (inactive).

As to `COc1cccc(CN(C)Cc2nc(Cc3ccccc3Cl)no2)c1`, the AC50 was > 100 µM (inactive). Further, under setting [1], the AC50 was > 100 µM.

For `COc1cccc(CNC(=O)CCSCc2ccccc2F)c1`, the AC50 was > 100 µM (inactive). Further, under setting [2], the AC50 was > 100 µM.

In the case of `c1ccc(Nc2ccc3ccccc3c2)cc1`, the AC50 was > 100 µM. Moreover, the AC50 under setting [2] was > 100 µM.

Regarding `Cc1cccc(-c2ccc([C@H]3[C@H](CO)N4CCCCN(S(=O)(=O)c5ccccc5C)C[C@@H]34)cc2)c1`, the AC50 is > 100 µM (inactive). Further, under setting [1], the AC50 is > 100 µM.

As to `COc1ccc(Cn2c(=O)c3[nH]cnc3n(-c3ccc(C)cc3)c2=O)cc1`, the AC50 was > 100 µM (inactive). The AC50 under setting [1] is > 100 µM.

For the molecule `CC(C)n1nnnc1C1c2ccccc2C(=O)N1CCOc1ccccc1` (stereo not drawn), the AC50 is > 100 µM (inactive).

`O=C(Nc1ccc2nc(-c3cccnc3)[nH]c2c1)c1ccco1`: the AC50 was > 100 µM (inactive). For the same molecule, under setting [2], the AC50 is > 100 µM.

For `COc1ccc(-c2noc(CCc3ccccc3)n2)cc1`, the AC50 was > 100 µM (inactive).

As to `CS(=O)(=O)c1ccc(C(=O)Nc2nc(-c3ccco3)c(-c3ccco3)s2)cc1`, the AC50 was > 100 µM (inactive). For the same molecule, the AC50 under setting [1] is > 100 µM. Also, the AC50 under setting [2] was > 100 µM.

For the molecule `COc1cc(NC(=O)c2ccc(Cl)cc2)c(OC)cc1NC(=O)CN1CCCCC1`, the AC50 under setting [1] was > 100 µM.

With `CCCN(CC(=O)Nc1ccccc1C)C(=O)c1cccc(S(=O)(=O)N2CCc3ccccc3C2)c1`, the AC50 was > 100 µM (inactive). Also, the AC50 under setting [1] was > 100 µM.

For `CCN(CC(=O)Nc1cccc(C#N)c1)CC(=O)Nc1cccc(OC)c1`, under setting [1], the AC50 was > 100 µM.

Regarding `CCOC(=O)c1cc(C)nc(N2CCCCC2)c1C#N`, the AC50 was > 100 µM (inactive). Moreover, under setting [1], the AC50 is > 100 µM.

With `C=C(C)Cn1c(=O)c2c(nc3n2CC(C)CN3Cc2ccccc2)n(C)c1=O` (stereo not drawn), the AC50 is > 100 µM (inactive).

Turning to `CSc1nc2ccc(NS(=O)(=O)c3ccc([N+](=O)[O-])cc3)cc2s1`, the AC50 was > 100 µM (inactive). Further, the AC50 under setting [1] is > 100 µM. In addition, the AC50 under setting [2] is > 100 µM.

Consider `CCOC(=O)c1cnc2c(c(C)nn2C)c1Oc1ccc(OC)cc1`, for which the AC50 is > 100 µM (inactive).

On to `CN(CC(=O)Nc1ccc(F)cc1)C(=O)COc1ccc([N+](=O)[O-])cc1Cl`, for which the AC50 is > 100 µM (inactive). Further, the AC50 under setting [1] is > 100 µM.

`Cc1cccc(OCCC(=O)Nc2ccc(F)c(F)c2)c1`: the AC50 was > 100 µM (inactive).

As for `CC(=O)Nc1ccc(OCc2nnc(-c3ccccc3)o2)cc1`, the AC50 is > 100 µM (inactive). Further, the AC50 under setting [1] is > 100 µM.

With `CCOc1ccccc1C(=O)OCC(=O)NCCc1ccc(OC)cc1`, the AC50 was > 100 µM (inactive). The same molecule gave an AC50 under setting [1] of 50.9 µM.

In the case of `CCN(CC)c1nc(Oc2ccc(C(=O)OC)cc2)nc(N2CCOCC2)n1`, the AC50 is > 100 µM (inactive).

`CCc1nn2cc(C(=O)c3cc(Cl)ccc3O)cnc2c1-c1ccc(F)cc1`: the AC50 is > 100 µM (inactive).

With `COC(=O)c1ccc2nc(-c3ccco3)c(Cc3ccc(C)cc3)n2c1`, the AC50 under setting [1] is > 100 µM.

For `C(=C/c1nccc2c1[nH]c1ccccc12)/c1ccc2c(c1)OCO2`, under setting [2], the AC50 was > 100 µM.

On to `CCCC(=O)Nc1cccc(C(=O)Nc2ccccc2OCC)c1`, for which the AC50 was > 100 µM (inactive).

For the molecule `CCN(CC)S(=O)(=O)c1ccc(N2CCCC2)c(NC(=O)c2ccccc2OC)c1`, the AC50 is > 100 µM (inactive).

For the molecule `COC(=O)C[C@H]1C[C@@H]2c3cc(NC(=O)Nc4ccc(C(F)(F)F)cc4)ccc3O[C@@H]2[C@H](CO)O1`, the AC50 is > 100 µM (inactive).

Consider `COc1ccc(-n2c(-c3ccc(C)cc3)nc3ccccc3c2=O)cc1`, for which the AC50 is > 100 µM (inactive).

As to `Cc1nn(-c2cccc(Cl)c2)nc1C(=O)O`, the AC50 is > 100 µM (inactive). Besides, under setting [1], the AC50 was > 100 µM.

For the molecule `CCN(CC)CCn1c(SCC(=O)Nc2cccc(OC)c2)nc2c(sc3ccccc32)c1=O`, the AC50 was > 100 µM (inactive). Also, the AC50 under setting [1] was > 100 µM.
